Values after ≈ are worked out from the molar mass of the structure shown. Values joined by “and” are separate entries in the source; they are usually repeats but may differ in a detail not shown here. Equal values may be shown once. Read-outs that look alike come from different tables or passages of the source.
Assays:
Type in all cases: physicochemical
[1] = Intrinsic dissolution at individual pH sectors (GLpKa, 3 mm disks, 30 min); conditions: for solubility at 30 min: acetate–phosphate buffer with KCl; for Dissolution Rate: fit of Noyes–Whitney equation; for % Dissolved at t = 30 min: single-pH sector
[2] = XRPD analysis of the tablet surface after the single-pH dissolution experiments
Description: X-ray powder diffraction (XRPD) patterns of new cocrystals of AD were measured on a PANalytical (Malvern, UK) X’Pert PRO MPD (transmission configuration with Cu Kα radiation, λ = 1.54187 Å) with a focalizing elliptic mirror and a PIXcel detector and a maximum detector’s active length of 3.347°. Transmission geometry configuration included a convergent beam with a focalizing mirror, a flat sample sandwiched between low absorbing films measuring from 1 to 40° in 2θ, a step size of 0.026° and a measuring time of 8 to 30 min at room temperature (25 °C). Capillary geometry has been used with AD–Resorcinol (Form I) placed in a glass capillary (Lindemman) 0.5 mm in diameter measuring from 2 to 70° in 2θ, with a step size of 0.013° and a total measuring time of 18 h. The powder diffractograms were indexed and the lattice parameters were refined by means of Le Bail fits by means of Dicvol04 [35], and the space group was determined from the systematic absences.
The first set of studies was performed at different pH sectors (1.5, 4.0, 5.5 and 7.4) which are typically encountered in the gastrointestinal tract (GIT), and individual dissolution rates were determined at each pH sector. To perform these experiments, disks of 3mm diameter containing 6–10 mg of the drug or cocrystal were prepared by applying a constant pressure of 0.1 ton for 2 min with a manual hydraulic tablet press (Applied Measurements Specac Ltd, Orpington UK). The tablet was placed in a holder, and only one side of the tablet was exposed to the dissolution medium. The total exposed surface area was 0.07 cm^2. A total of 1.5 mL of 0.125 M acetate–phosphate buffer at pH 1.6 was introduced into the vial without wetting the tablet surface. The instrument then automatically added 13.5 mL of 0.15 M KCl solution and adjusted the pH to the required value (see Table S2 for exact experimental details). Spectra collection started immediately after. Spectra were recorded every 30 s for 30 min. The medium was stirred at a constant rate. The solid state of the remaining disks was analyzed using XRPD.
The XRPD analysis of the tablet surface after the dissolution experiments confirms that there is some transformation of the solid form. The highest transformation occurs for AD tablets, where 20% of the initial AD (Form I) is transformed into the dihydrate. This transformation is reproducible, as deduced by the low error bars in the dissolution profiles. In the case of cocrystals, they mainly remain in its original solid form; the 5–10% of the free AD (Form I) observed in the analysis of the tablets could be the result of AD deposition during the experiments since the saturation concentration is reached very quickly, rather than a solid phase transformation in the surface of the tablet.

[3] = Dissolution in a four-pH sector sequence (pH 1.5 to 7.4, 30 min at each pH, GLpKa)
Description: A second set of experiments was performed with the same instrument. However, determinations were made in a full sequence of pHs (from 1.5 to 7.4) maintained for 30 min at each individual pH. To change the pH, KOH was added to the medium (Table S3).
Compared to the single-pH experiments, the four-pH sectors determination provides dynamic information of the dissolution behavior of the compounds along the GIT. Now, the dissolution test starts at pH 1.5, and dissolution is monitored for 30 min. Then, the pH is raised to 4.0, 5.5, and finally, 7.4, monitoring dissolution for 30 min at each pH.

[4] = Biphasic four-pH sector dissolution with 1-decanol lipid layer (Pion inForm); conditions: for Transfer of AD towards the organic layer (1-decanol): pH 4.0 sector
Description: The third set of measurements were performed using a Pion inForm automated titrator system from Pion (Pion-Inc., Billerica, MA, USA, www.pion-inc.com) with an incorporated UV-Vis spectrophotometer to acquire the spectrophotometric data. The optical system also consisted of a photodiode array detector with a deuterium lamp and included two fiber optic dip probes. The titrator module included a temperature controller (a Peltier device with in-situ thermocouple), pH electrode, an overhead stirrer and motorized dispensers for the automatic delivery of assay titrants and reagents via capillaries. The instrumentation was operated by inForm Control and Assay Designer software (version 1.6.0.0). The Pion inForm system was used for the biphasic dissolution studies. Samples were prepared as described previously, and studies were performed consecutively through the four different pH sectors, with the addition of a lipid layer (1-decanol) in the second sector to mimic the absorption in the GIT. The dissolution media consisted of 40 mL of aqueous solution, which was added automatically to an 80 mL dissolution vessel and brought to 25 °C (±0.1 °C). Once the media were adjusted to the starting pH and temperature, each sample was added automatically, and data collection was started from the point of sample introduction. The lipid layer (30 mL) was added in the second pH sector after the pH was adjusted to 4.0 (see Table S4 for exact experimental details). The two UV optic fiber probes each with a 10mm path length, were used on the inForm platform for quantitating the drug in the aqueous phase and in the lipid layer. Stirring of the solution was continuous at a rate of 100 rpm through the four sectors. Spectral and pH data were collected with a frequency of 30 s over a period of 2 h.
Contrary to GLpKa, which has a fixed probe with a 10 mm path length that cannot be exchangeable with different path length size tips, Pion inForm is provided with two UV probes, both with a 10 mm path length: a fixed path-length and an exchangeable path-length. These probes were used for the aqueous and the lipid media, respectively. In this way, the UV data collected for the three cocrystals could be quantified using the MECs of orcinol, resorcinol and hydroquinone. Moreover, in the inForm system a greater volume of solution is used (40 mL instead of 15 mL of water used for the GLpKa). Therefore, the signal was not saturated, and the UV spectra for the coformers and the adefovir could be distinguished between them.
In order to study dissolution under conditions that mimic in vivo conditions more closely than other systems, the final set of experiments was carried out in a biphasic dissolution system. The test consists again in a four-pH sectors experiment, but in this case, 1-decanol was added in the second sector (pH 4.0) to simulate the contact with lipidic membranes. Then, the API concentration was monitored simultaneously in both phases through two different optic fiber probes.

[5] = pKa determination
[6] = pH 1.5, SD in parenthesis, n = 3
[7] = pH 4.0, SD in parenthesis, n = 3
[8] = pH 5.5, SD in parenthesis, n = 3
[9] = pH 7.4, SD in parenthesis, n = 3

SMILES	Dissolution Rate [1, 6]	% Dissolved at t = 30 min [1, 6]	Dissolution Rate [1, 7]	% Dissolved at t = 30 min [1, 7]	Dissolution Rate [1, 8]	% Dissolved at t = 30 min [1, 8]	Dissolution Rate [1, 9]	% Dissolved at t = 30 min [1, 9]	Final Solid Form on tablet surface after dissolution ([2]; pH 1.5)	Final Solid Form on tablet surface after dissolution ([2]; pH 4.0)	Final Solid Form on tablet surface after dissolution ([2]; pH 5.5)	Final Solid Form on tablet surface after dissolution ([2]; pH 7.4)	Transfer of AD towards the organic layer (1-decanol) [4]	also measured
CC(C)(C)C(=O)OCOP(=O)(COCCn1cnc2c(N)ncnc21)OCOC(=O)C(C)(C)C [AD, 9-{2-[Bis(pivaloyloxymethoxy)phosphinylmethoxy]ethyl}adenine]	315 (4) nmols/min	29.0 (1.0) %	35 (4) nmols/min	5.7% and 5.7 (0.4) %	21 (4) nmols/min	3.8% and 3.8 (0.6) %	17 (2) nmols/min	3.3% and 3.3 (0.4) %	Form I + AD–dihydrate (80%:20%)	Form I + AD–dihydrate (80%:20%)	Form I + AD–dihydrate (80%:20%)	Form I + AD–dihydrate (80%:20%)	even slower	solubility at 30 min ([1]; aqueous buffer, thermodynamic from solid, pH 1.5, SD in parenthesis, n = 3, read-out: AD Solubility): 325 µM (≈ 163 µg/mL); solubility at 30 min ([1]; aqueous buffer, thermodynamic from solid, pH 4.0, SD in parenthesis, n = 3, read-out: AD Solubility, extrapolated (from Equation (1))): 139 µM (≈ 69.7 µg/mL); solubility at 30 min ([1]; aqueous buffer, thermodynamic from solid, pH 5.5, SD in parenthesis, n = 3, read-out: AD Solubility, extrapolated (from Equation (1))): 128 µM (≈ 64.2 µg/mL); solubility at 30 min ([1]; aqueous buffer, thermodynamic from solid, pH 7.4, SD in parenthesis, n = 3, read-out: AD Solubility, extrapolated (from Equation (1))): 123 µM (≈ 61.7 µg/mL); solubility at 30 min ([1]; pH 1.5, read-out: Solubility for AD indicated by the plateaus of the cocrystal profiles): ~300 µM (≈ 150 µg/mL); Saturation concentration of AD ([1]; rest of pH values (4.0, 5.5, 7.4), particularly pH 5.5 and 7.4): around 100 μM; Share of the initial solid form transformed / other form found on tablet after dissolution ([2]; XRPD of tablet surface): 20%; % of API dissolved, four-pH sector test ([3]; pH 1.5 sector): 30%; % of AD in solution, four-pH sector test ([3]; pH 4.0 sector): 25%; % of AD in solution, four-pH sector test ([3]; pH 5.5 sector): 20%; % of AD in solution, four-pH sector test ([3]; pH 7.4 sector): 20%; pKa [5]: 3.78 ± 0.05
CC(C)(C)C(=O)OCOP(=O)(COCCn1cnc2c(N)ncnc21)OCOC(=O)C(C)(C)C.Cc1cc(O)cc(O)c1 [AD–Orc cocrystal]	626 (40) nmols/min	39.2 (1.1) %	147 (47) nmols/min	14.7 (1.6) %	17 (1) nmols/min	10.6 (2.5) %	17 (3) nmols/min	13.1 (3.6) %	Cocrystal + AD–dihydrate (90%:10%)	Cocrystal + AD–dihydrate (90%:10%)	Cocrystal + AD–dihydrate (90%:10%)	Cocrystal + AD–dihydrate (90%:10%)	rapid transfer of AD towards the organic layer	
CC(C)(C)C(=O)OCOP(=O)(COCCn1cnc2c(N)ncnc21)OCOC(=O)C(C)(C)C.Oc1cccc(O)c1 [AD–Res cocrystal (Form I)]	1015 (6) nmols/min	39.3 (1.3) %	63 (2) nmols/min	16.1 (2.0) %	19 (1) nmols/min	12.2 (2.0) %	15 (1) nmols/min	10.9 (2.7) %	Cocrystal (Form I) + AD–dihydrate (95%:5%)	Cocrystal (Form I) + AD–dihydrate (95%:5%)	Cocrystal (Form I) + AD–dihydrate (95%:5%)	Cocrystal (Form I) + AD–dihydrate (95%:5%)	rapid transfer of AD towards the organic layer	
CC(C)(C)C(=O)OCOP(=O)(COCCn1cnc2c(N)ncnc21)OCOC(=O)C(C)(C)C.Oc1ccc(O)cc1 [AD–hydroquinone cocrystal]													slightly slower	Slope of dissolution profile in the first pH sector ([4]; pH 1.5, aqueous phase): inferior slope compared to the cocrystals with resorcinol and orcinol
